The values below come from ChEMBL document CHEMBL4765461, “Why All the Fuss about Oxidative Phosphorylation (OXPHOS)?” (J Med Chem, 2020).

Molecules are shown by their SMILES.

Series [1] can be described thus: Cmax in CD1 mouse plasma at 10 mg/kg, ip by LC/MS/MS analysis. Format: ADME, organism-based. Details: route intraperitoneal, dose 10 mg/kg.
A short description of series [2]: Half life in mouse plasma incubated up to 1440 mins by mass spectrometric analysis. Format: ADME, cell-free.
A short description of series [3]: Half life in CD1 mouse plasma at 10 mg/kg, ip by LC/MS/MS analysis. Format: ADME, organism-based.
A short description of series [4]: Antiproliferative activity against human H2030-BrM3 cells by IncuCyte live-cell imaging assay. Format: functional, cell-based.
Series [5] can be described thus: Ratio of drug level in ICR mouse brain to plasma at 30 mg/kg, po by LC-MS analysis. The note with it: read-out: BPR. Format: ADME, organism-based.
Series [6] is described as follows: Inhibition of mitochondrial complex 1 in human MiaPaCa-2 cells assessed as reduction in oxygen consumption incubated for 24 hrs. Particulars: mia paca-2. In kind it is cell-based.
Another series concerns A549. Briefly: Antiproliferative activity against human A549 cells by IncuCyte live-cell imaging assay. In kind it is functional, cell-based.
For a further series, the system named is MCF7. Briefly: Inhibition of mammosphere formation in human MCF7 cells incubated for 5 days. The note with it: MCF7, 120 h. In kind it is functional, cell-based.
The nature of series [7]: Inhibition of Cytochrome b-c1 complex I304M/R306K double mutant in Rhodobacter capsulatus MT-RBC1.
The nature of series [8]: Inhibition of mitochondrial complex 1 in human PC-3 cell mitochondria assessed as reduction in oxygen consumption using glutamate/malate/ADP as substrate by oxygen sensitive fluorescent dye based assay.
Series [9] is described as follows: Inhibition of mitochondrial complex 1 in human NCI-H460 cells assessed as reduction in cell proliferation incubated for 48 hrs under galactose containing medium by cell titer glow assay. Format: cell-based. The note with it: NCI-H460, 48 h.
The nature of series [10]: Growth inhibition of mouse GBM cells incubated for 4 days by Celltiter glo assay. Particulars: 96 h. In kind it is functional, cell-based. (In ATP-based viability assays light output follows the ATP content of the culture.)
The test system of a further series is GBM. The experiment in a line: Growth inhibition of patient derived GBM cells incubated for 4 days by Celltiter glo assay. Format: functional, cell-based. The note with it: Homo sapiens, 96 h.
A short description of series [11]: Half life in ICR/CD-1 mouse S9 fraction incubated for 0 to 240 mins in presence of NADPH regenerating system by HPLC/MS analysis. Format: ADME, subcellular. The note with it: time 0-240 min.
Series [12] is described as follows: Inhibition of mitochondrial complex 1 in bovine heart mitochondria incubated for 3 hrs and measured up to 30 mins by colorimetric method.
A short description of series [13]: Inhibition of mitochondrial complex 1 in Sprague-Dawley rat heart mitochondria by spectrophotometric method.
Series [14] is described as follows: Inhibition of F0F1-ATP synthase in yeast intact mitochondria by LDH/pyruvate kinase coupled enzyme assay. Also noted: species or system Saccharomyces cerevisiae.
The nature of series [15]: Inhibition of yeast mitochondrial F0F1-ATP synthase by LDH/pyruvate kinase coupled enzyme assay. Details: species or system Saccharomyces cerevisiae.
Series [16] can be described thus: Oral bioavailability in ICR mouse at 30 mg/kg. Format: ADME, organism-based. Particulars: in vivo.
Series [17] can be described thus: Inhibition of mitochondrial complex1 (unknown origin). Details: species or system Homo sapiens.
A short description of series [18]: Inhibition of mitochondrial complex 1 in human A549 cells assessed as oxygen consumption rate by seahorse analysis. In kind it is cell-based.
Series [19] has as its target cAMP and cAMP-inhibited cGMP 3',5'-cyclic phosphodiesterase 10A (Homo sapiens) (UniProt Q9Y233). Briefly: Inhibition of PDE10A (unknown origin).
Series [20] in a line: Inhibition of mitochondrial complex 1 in human NCI-H460 cells assessed as reduction in oxygen consumption rate by seahorse analysis. Format: cell-based.
Series [21] in a line: Inhibition of mitochondrial pyruvate carrier in Wistar rat liver mitochondria assessed as reduction in [1-14C]pyruvate uptake preincubated for 2 mins followed by rotenone and [1-14C]pyruvate addition by scintillation counting method.

cAMP and cAMP-inhibited cGMP 3',5'-cyclic phosphodiesterase 10A (Homo sapiens), sequence (Q9Y233 whole entry): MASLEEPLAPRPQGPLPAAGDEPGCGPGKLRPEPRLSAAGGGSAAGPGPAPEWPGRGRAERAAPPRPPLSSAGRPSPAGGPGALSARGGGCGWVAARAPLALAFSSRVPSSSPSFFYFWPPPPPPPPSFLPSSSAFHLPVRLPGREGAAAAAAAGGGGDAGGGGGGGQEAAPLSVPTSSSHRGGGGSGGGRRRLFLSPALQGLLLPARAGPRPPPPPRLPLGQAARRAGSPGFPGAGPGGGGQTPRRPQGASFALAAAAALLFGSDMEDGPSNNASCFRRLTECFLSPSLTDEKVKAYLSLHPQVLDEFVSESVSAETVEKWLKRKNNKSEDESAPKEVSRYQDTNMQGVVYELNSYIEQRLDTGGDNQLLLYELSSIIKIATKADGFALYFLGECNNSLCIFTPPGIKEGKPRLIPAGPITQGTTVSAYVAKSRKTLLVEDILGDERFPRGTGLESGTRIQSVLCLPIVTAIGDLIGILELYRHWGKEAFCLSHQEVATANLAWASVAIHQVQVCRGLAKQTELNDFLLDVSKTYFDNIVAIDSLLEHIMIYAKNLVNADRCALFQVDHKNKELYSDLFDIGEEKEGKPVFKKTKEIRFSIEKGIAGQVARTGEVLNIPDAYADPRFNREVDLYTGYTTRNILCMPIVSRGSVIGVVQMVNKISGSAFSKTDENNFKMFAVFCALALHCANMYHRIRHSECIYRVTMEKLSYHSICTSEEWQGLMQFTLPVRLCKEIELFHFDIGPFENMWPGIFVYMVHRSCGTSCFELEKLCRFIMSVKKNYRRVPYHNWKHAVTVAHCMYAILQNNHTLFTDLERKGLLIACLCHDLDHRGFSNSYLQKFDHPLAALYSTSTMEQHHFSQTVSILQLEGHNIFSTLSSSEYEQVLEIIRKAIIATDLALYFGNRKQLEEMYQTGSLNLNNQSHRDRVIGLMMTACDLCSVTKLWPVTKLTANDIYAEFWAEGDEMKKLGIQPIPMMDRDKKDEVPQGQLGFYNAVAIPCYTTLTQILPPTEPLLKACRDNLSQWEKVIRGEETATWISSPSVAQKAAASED

The compound `CC(C)[C@@H]1CC[C@@H](C)C[C@H]1OC(=O)Cn1c(-c2cccc(C(F)(F)F)c2)[n+](C)c2ccccc21.[I-]` showed a Cmax in [1] of 375 ng/g. Moreover, the half-life stood at 5.1 h in [2] and 15.2 h in series [3].
On to `CN(C)C(=N)NC(=N)N` [METFORMIN], for which the IC50 in series [4] stood at 139 µM; in series [6], 1100 µM; in the series on A549, 208 µM. For the same compound, the Kp in series [5] is 0.1.
Take `O=C1C(O)=C([C@H]2CC[C@H](c3ccc(Cl)cc3)CC2)C(=O)c2ccccc21` [ATOVAQUONE]: the IC50 in the series on MCF7 amounted to 1 µM; in [7], 0.01 µM.
Regarding `Cc1cc(-c2nc(-c3ccc(OC(F)(F)F)cc3)no2)nn1Cc1ccnc(N2CCN(C3CC3)CC2)c1`, in series [8], the IC50 stood at 0.01 µM. Besides, the EC50 in series [9] is 0.003 µM.
On to `CCc1n(CC(=O)O[C@@H]2C[C@H](C)CC[C@H]2C(C)C)c2ccccc2[n+]1C.[Cl-]`, for which the half-life in series [2] was determined as 0.0667 h; in series [11], 3.62 h. Also, the IC50 amounted to 0.15 µM in series [10] and 1 µM in the series on GBM.
Turning to `FC(F)(F)c1ccc(/C=C/c2nc(COc3ccc(CCCCn4ccnn4)cc3)co2)cc1` [MUBRITINIB], the IC50 in series [12] was found to be 0.051 µM.
For `Cc1ccc(Sc2cccc3[nH]c4nc(N)nc(N)c4c23)cc1`, the IC50 in series [13] was determined as 9.9 µM.
Consider `N=C(N)NC(=N)NCCCCCCCCCC[P+](c1ccccc1)(c1ccccc1)c1ccccc1`, for which the IC50 in [6] is 0.4 µM.
Take `COC[C@@H](C[C@H]1O[C@@](O)([C@H](O)[C@@H]2C[C@H](OC)[C@@H](O)CC/C=C(C)/C=C/[C@@H](O[C@@H]3O[C@@H](C)[C@H](OC)[C@@H](O)[C@@H]3O)[C@H](C)/C=C(C)/C=C(C)/C=C(\C)C(=O)O2)[C@H](C)[C@@H](O)[C@H]1C)O[C@H]1C[C@](C)(O)[C@@H](O[C@H]2C[C@@H](OC)[C@H](O)[C@@H](C)O2)[C@H](C)O1`: the Ki in series [14] was found to be 5 µM; in [15], 4 µM.
Turning to `N=C(NC(=N)N1CCCC1)Nc1ccc(OC(F)(F)F)cc1` [LIXUMISTAT], the Kp in series [5] amounted to 0.37. For the same compound, the bioavailability in [16] stood at 72.9%.
As for `C=C(C)[C@H]1Cc2c(ccc3c2O[C@@H]2COc4cc(OC)c(OC)cc4[C@@H]2C3=O)O1` [ROTENONE], the IC50 in series [17] worked out at 0.1 µM.
`COc1cc2ccnc(Cc3cccc4ccccc34)c2cc1OC`: the IC50 in [18] amounted to 7.2 µM. The compound also came in with an IC20 in series [19] of 13.4 µM.
For `COc1ccc(Cc2nccc3cc(OC)c(OC)cc23)cc1OC` [PAPAVERINE], in that order: 15.4 µM and 0.65 µM.
In the case of `O=C(NCCCCCCCCCC[P+](c1ccccc1)(c1ccccc1)c1ccccc1)c1nn(Cc2ccc(Cl)cc2Cl)c2ccccc12`, the IC50 amounted to 0.74 µM in [4] and 0.69 µM with A549.
Take `Cc1nc(-c2nc(-c3ccc(OC(F)(F)F)cc3)no2)nn1Cc1cccc(N2CCC(S(C)(=O)=O)CC2)c1`: in series [20], the IC50 is 0.0014 µM.
For the compound `O=C(O)c1nn(Cc2ccc(Cl)cc2Cl)c2ccccc12` [LONIDAMINE], in [21], the Ki is 2.5 µM.

As a reminder, the Cmax is the highest concentration seen after dosing. One may read the half-life as the time needed for the level to fall by half in the phase considered. A word on the IC50: it is the concentration needed to halve the response being measured. As usually defined, the EC50 is the concentration that produces a half-maximal response. As a reminder, the Ki is a measure of affinity in units of concentration, obtained from inhibition or displacement. Broadly, the bioavailability is the share of a dose that reaches the circulation, judged against a reference dose that is usually intravenous. Low values mean little systemic uptake, high ones much systemic uptake. Usually IC20 stands for the concentration at which the effect reaches the 20% level.
